Laboratory results: patent US9403763B2, “CD4-mimetic inhibitors of HIV-1 entry and methods of use thereof” (priority 2011, dated 2016)
“Also recorded” adds a separate entry of the source. Where a name gives a salt, the structure may show the parent alone. Read-outs that look alike come from different tables or passages of the source.

Assays:
[1] = tested on: recombinant HIV-1YU2; test: Activation of viral infectivity in CD4-negative Cf2Th-CCR5 cells; type: cell-based; conditions: for enhancement of viral infectivity in CD4 deficient cells: YU2, CD4-negative, CCR5-expressing cells
[2] = tested on: amphotropic murine leukemia virus (A-MLV); test: Specificity control: infection by virus pseudotyped with A-MLV envelope glycoproteins; type: cell-based; conditions: for specificity: inhibition of A-MLV entry: either cell type
Procedure: (§1) The calorimetric cell (approximately 1.4 mL), containing gp120 from the YU2 strain dissolved in PBS (Roche Diagnostics GmbH, Mannheim, Germany), pH 7.4 with 2% DMSO, was titrated with the different inhibitors dissolved in the same buffer.
(§2) The recombinant viruses employed were pseudotyped with HIV-1 envelope glycoproteins derived from either an X4, laboratory-adapted HXBc2 isolate, or the R5, primary YU2 isolate. As a control for specificity, the viruses were pseudotyped with the envelope glycoproteins of the amphotropic murine leukemia virus (A-MLV), an unrelated retrovirus.
(§3) Compounds were dissolved in dimethyl sulfoxide (DMSO), and stored at 10 mM concentrations at −20° C. The compounds were diluted in Dulbecco Modified Eagle Medium (DMEM, Invitrogen) to create 1 mM solutions before use. Soluble CD4 (sCD4) was purchased from ImmunoDiagnostics (Woburn, Mass.). Human 293T embryonic kidney and canine Cf2Th thymocytes (ATCC) were grown at 37° C. and 5% CO2 in DMEM (Invitrogen) containing 10% fetal bovine serum (Sigma) and 100 μg/mL of penicillin-streptomycin (Meditech, Inc.). Cf2Th cells stably expressing human CD4 and either CCR5 or CXCR4 (Babcock et al., 2001, Mirzabekov et al., 1999) were grown in medium supplemented with 0.4 mg/mL of G418 (Invitrogen) and 0.20 mg/mL of hygromycin B (Roche Diagnostics). Using the Effectene transfection reagent (Qiagen), 293T human embryonic kidney cells were cotransfected with plasmids expressing the pCMVΔP1ΔenvpA HIV-1 Gag-Pol packaging construct, the wild-type or mutant HIV-1YU2 envelope glycoproteins or the envelope glycoproteins of the control amphotropic murine leukemia virus (A-MLV), and the firefly luciferase-expressing vector at a DNA ratio of 1:1:3 μg. For the production of viruses pseudotyped with the A-MLV glycoprotein, a rev-expressing plasmid was added. The single-round, replication-defective viruses in the supernatants were harvested 24-30 hours after transfection, filtered (0.45 μm), aliquoted, and frozen at −80° C. until further use. The reverse transcriptase (RT) activities of all viruses were measured as described previously (Rho et al., 1981).
(§4) Cf2Th/CD4-CCR5 or Cf2Th/CD4-CXCR4 target cells were seeded at a density of 6×10^3 cells/well in 96-well luminometer-compatible tissue culture plates (Perkin Elmer) 24 h before infection. On the day of infection, (1 to 100 μM) was added to recombinant viruses (10,000 reverse transcriptase units) in a final volume of 50 μL and incubated at 37° C. for 30 minutes. The medium was removed from the target cells, which were then incubated with the virus-drug mixture for 2-4 hours at 37° C. At the end of this time point, complete medium was added to a final volume of 150 μL and incubated for 48 hours at 37° C. The medium was removed from each well, and the cells were lysed with 30 μL of passive lysis buffer (Promega) by three freeze-thaw cycles.

[3] = tested on: HIV-1YU2 virus; test: Single-round infection of Cf2Th-CD4/CCR5 cells by luciferase-expressing HIV-1YU2 virus; type: cell-based; conditions: for inhibition of entry of YU2 and ADA viruses: CD4- and CCR5-expressing cells
Procedure: as §1, §3, §4

[4] = biological target: T1, gp120 from the YU2 strain (Human immunodeficiency virus type 1 group M subtype B, UniProt P35961); test: biochemical; type: binding, HIV-1
Procedure: as §1
Analogue binding to full-length gp120 from the YU2 strain was next characterized by isothermal titration calorimetry to assess the enthalpic and entropic contributions to binding affinity (FIG. 7 and FIG. 3c). […] Schön, A. et al. Biochemistry 45, 10973-80 (2006). […] Schön, A. et al. Chem Biol Drug Des: 77, 161-165 (2011).
Isothermal titration calorimetric experiments were performed using a high-precision VP-ITC titration calorimetric system from MicroCal LLC. (Northampton, Mass.). The calorimetric cell (˜1.4 mL), containing gp120 at a concentration of about 2 μM dissolved in PBS, pH 7.4 (Roche Diagnostics GmbH), with 2% DMSO, was titrated with the different compounds dissolved in the same buffer at concentrations of 80-130 μM. The compound solution was added in aliquots of 10 μL at pre-set intervals. All solutions were degassed to avoid any formation of bubbles in the calorimeter during stirring. All experiments were performed at 25° C. The heat evolved upon injection of compound was obtained from the integral of the calorimetric signal. The heat associated with the binding reaction was obtained by subtracting the heat of dilution from the heat of reaction. The individual binding heats were plotted against the molar ratio, and the values for the enthalpy change (ΔH) and association constant, Ka (Kd=1/Ka), were obtained by nonlinear regression of the data.

[5] = tested on: clade B Env-pseudoviruses; test: Neutralization of Env-pseudoviruses in TZM-bl cells, clade B; type: cell-based, HIV-1; conditions: for neutralization breadth: clade B
Procedure: (§5) HIV-1 Env-pseudoviruses were prepared by transfecting 293T cells with 10 μg of rev/env expression plasmid and 30 μg of an env-deficient HIV-1 backbone vector (pSG3Δenv), using Fugene 6 transfection reagents (Invitrogen). Pseudovirus-containing culture supernatants were harvested two days after transfection, filtered (0.45 μm), and stored at −80° C. or in the vapor phase of liquid nitrogen. Neutralization was measured using HIV-1 Env-pseudoviruses to infect TZM-b1 cells as described previously (Li et al., 2005; Li et al., 2006; Seaman et al., 2010; Wu et al., 2009) with minor modifications. Briefly, the test reagent (DMJ-I-228, NBD556, or CD4-Ig) were diluted in complete media containing 10% DMSO. Then 40 μL of virus was added to 10 μL of serial diluted test reagent in duplicate wells of a 96-well flat bottom culture plate, and the virus-reagent mix was incubated for 30 min at 37° C. To keep assay conditions constant, sham media containing 10% DMSO was used in place of test reagent in specified control wells. The virus input was set at a multiplicity of infection of approximately 0.01-0.1, which generally results in 100,000 to 400,000 relative light units (RLU) in a luciferase assay (Promega, Madison, Wis.). The test reagent concentrations were defined at the point of incubation with virus supernatant. Neutralization curves were fit by nonlinear regression using a 5-parameter hill slope equation as previously described (Seaman et al., 2010).
(§6) To assess further the HIV-1 neutralization breadth and potency, we assayed 1, (+)-3, (+)-4 against 42 diverse strains of clades B and C Env-pseudoviruses (data not shown).

[6] = tested on: clade C Env-pseudoviruses; test: Neutralization of Env-pseudoviruses in TZM-bl cells, clade C; type: cell-based, HIV-1; conditions: for neutralization breadth: clade C
Procedure: as §5, §6

[7] = tested on: YU2 S375W virus; test: Viral inhibition with the cavity filling YU2 mutant S375W; type: cell-based, HIV-1
Procedure: Then, the capacity of DMJ-I-228 (10) to bind within the Phe43 cavity was assessed by measuring viral inhibition in the context of the cavity filling YU2 mutant S375W.

[8] = biological target: T1, gp120 from the YU2 strain; design: species or system HIV-1; conditions: from temperature dependence of the binding enthalpy
[9] = tested on: mono-tropic (HXBc2) and dual tropic (89.6 and KB9) viruses; test: Inhibition of entry on cells co-expressing CD4 and CXCR4; type: cell-based, HIV-1; conditions: Human immunodeficiency virus 1, read-out: IC50 of entry inhibition
Procedure: as §2
Compounds were dissolved in dimethyl sulfoxide (DMSO), and stored at 10 mM concentrations at −20° C. The compounds were diluted in Dulbecco Modified Eagle Medium (DMEM, Invitrogen) to create 1 mM solutions before use. Soluble CD4 (sCD4) was purchased from ImmunoDiagnostics (Woburn, Mass.). Human 293T embryonic kidney and canine Cf2Th thymocytes (ATCC) were grown at 37° C. and 5% CO2 in DMEM (Invitrogen) containing 10% fetal bovine serum (Sigma) and 100 μg/mL of penicillin-streptomycin (Meditech, Inc.). Cf2Th cells stably expressing human CD4 and either CCR5 or CXCR4 (Babcock et al., 2001, Mirzabekov et al., 1999) were grown in medium supplemented with 0.4 mg/mL of G418 (Invitrogen) and 0.20 mg/mL of hygromycin B (Roche Diagnostics). […] The reverse transcriptase (RT) activities of all viruses were measured as described previously (Rho et al., 1981). […]

[10] = biological target: gp120 (Human immunodeficiency virus type 1 group M subtype B, UniProt P35961); conditions: previously reported, cited from earlier work
[11] = Human immunodeficiency virus 1, TZM-bl, read-out: IC50 GMT

## CNC(=O)C(NC(=O)C(=O)Nc1ccc(Cl)c(F)c1)c1ccccc1 (centres unmarked)
[1]; Example 24 table
  Enhancement of viral infection of CD4− cells: 0.00
[2]; Murine leukemia virus, read-out: IC50 of A-MLV on CD4^+ cells
  IC50: 91.7 µM
[3]; Human immunodeficiency virus 1, Cf2Th-CD4/CCR5, read-out: IC50 of HIV-1 on CD4^+ cells
  IC50: 70 µM
[4]; Example 24 table
  ΔG: -7.6 kcal/mol
  ΔH: -9.2 kcal/mol
  −TΔS: +1.6 kcal/mol
[4]; Example 24 table, read-out: Kd
  Kd: 2.5 µM

## N=C(N)NC[C@H]1Cc2ccccc2[C@@H]1NC(=O)C(=O)Nc1ccc(Cl)c(F)c1 [(+)-4, (+)-N^1-(4-Chloro-3-fluorophenyl)-N^2-(trans-2-(guanidinomethyl)indan-1-yl)oxalamide formate salt]
[5]; [11]
  IC50: 1.7 µM
[5]
  neutralization breadth: 100%
[5]; clade B viruses
  improvement over (+)-3 based on IC50 titers: 60%
  improvement over (+)-3 based on IC80 titers: 1.5 fold
[3]; Human immunodeficiency virus 1, CCR5, read-out: IC50 of viral entry, YU2
  IC50: 3.1 ± 0.6 µM
[6]; [11]
  IC50: 14 µM
[6]
  neutralization breadth: 59%
[4]; ITC, full-length gp120, read-out: Kd
  Kd: 0.11 µM

## N[C@@H]1Cc2ccccc2[C@H]1NC(=O)C(=O)Nc1ccc(Cl)c(F)c1 [AWS-I-45, N^1-((1R,2R)-2-amino-2,3-dihydro-1H-inden-1-yl)-N^2-(4-chloro-3-fluorophenyl)oxalamide]
[2]
  specificity: inhibition of A-MLV entry: non-specificity
[4]; ITC
  binding affinity compared to TS-II-224 (2): three-fold loss in affinity

## N[C@H]1Cc2ccccc2[C@@H]1NC(=O)C(=O)Nc1ccc(Cl)c(F)c1 [AWS-I-50]
[2]
  specificity: inhibition of A-MLV entry: non-specificity
[4]; ITC
  binding affinity compared to TS-II-224 (2): three-fold loss in affinity
[4]; ITC, 25° C.
  entropy contribution −TΔS: -7.6 kcal/mol

## N=C(N)N[C@@H]1Cc2ccccc2[C@H]1NC(=O)C(=O)Nc1ccc(Cl)c(F)c1 [AWS-I-169]
[1]
  enhancement of viral infectivity in CD4 deficient cells: did not enhance viral infectivity; also recorded: did not enhance entry
[5]
  neutralization breadth: 100%
[2]
  specificity: inhibition of A-MLV entry: did not inhibit A-MLV entry
[7]
  sensitivity of YU2 S375W virus to compound: completely resistant
[3]
  inhibition of entry of YU2 and ADA viruses: inhibited the entry
[8]
  change in heat capacity: −817±15 cal/(K×mol)
[9]
  IC50: 6 to 30 µM
[6]
  neutralization breadth: 100%
[4]; ITC
  binding affinity compared to TS-II-224 (2): comparable affinity
[4]; ITC, 25° C.
  enthalpy change ΔH: -19.4 kcal/mol
  entropy contribution −TΔS: -10.4 kcal/mol

## N=C(N)N[C@H]1Cc2ccccc2[C@@H]1NC(=O)C(=O)Nc1ccc(Cl)c(F)c1 [DMJ-I-228]
[1]
  enhancement of viral infectivity in CD4 deficient cells: did not enhance viral infectivity; also recorded: did not enhance entry
[5]
  neutralization breadth: 100%
[2]
  specificity: inhibition of A-MLV entry: did not inhibit A-MLV entry
[7]
  sensitivity of YU2 S375W virus to compound: completely resistant
[3]
  inhibition of entry of YU2 and ADA viruses: inhibited the entry
[9]
  IC50: 6 to 30 µM
[6]
  neutralization breadth: 100%
[4]; ITC
  binding affinity compared to TS-II-224 (2): comparable affinity
[4]; ITC, 25° C.
  enthalpy change ΔH: -14.9 kcal/mol
  entropy change ΔS: −20 cal/(K×mol)
  entropy contribution −TΔS: -5.9 kcal/mol
[4]; ITC, 25° C., read-out: Kd (binding affinity)
  Kd: 0.25 µM

## CC1(C)CC(NC(=O)C(=O)Nc2ccc(Cl)cc2)CC(C)(C)N1 [NBD-556]
[10]; 25° C.
  enthalpy change: -24.5 kcal/mol
[10]
  unfavorable entropy change −TΔS, contribution to Gibbs energy: 17.1 kcal/mol

## O=C(Nc1ccc(Cl)c(F)c1)C(=O)N[C@H]1c2ccccc2C[C@H]1O [TK-II-52]
[2]
  specificity: inhibition of A-MLV entry: non-specificity

## O=C(Nc1ccc(Cl)c(F)c1)C(=O)N[C@@H]1c2ccccc2C[C@@H]1O [TK-II-103, N^1-(4-chloro-3-fluorophenyl)-N^2-((1R,2S)-2-hydroxy-2,3-dihydro-1H-inden-1-yl)oxalamide]
[2]
  specificity: inhibition of A-MLV entry: non-specificity
